This is an account of results in US4261910A, “Process for the preparation of Chlorambucil derivatives” (Kureha Kagaku Kogyo Kabushiki Kaisha, priority 1978, dated 1981).

Series [1] concerns human breast cancer cells having steroid hormone receptor. As to the kind of experiment: Antitumor test (in vivo), implanted human breast cancer, drug in olive oil. On the set-up: species or system human (implanted in BALB/C-nu/nu mice). The settings on record: oral administration. The source says: (§1) Pieces of human breast cancer cells having steroid hormone receptor were subcutaneously implanted under the arm of mice (BALB/C-nu/nu) (5 week age) to form solid tumors. After the solid tumors were established, each dispersion or solution of the active ingredient in olive oil was administrated by oral dose or intraperitoneal injection each other day for 10 times or every days for 20 times. Twenty five days from the initial administration, the tumors were excised. Efficiency of inhibition of tumor proliferation was measured from (A) each average weight of excised tumors for 10 mice (the active ingredient was administrated) and (B) each average weight of excised tumors for 10 control mice. [formula]

Another series in a line: Acute toxicity (LD50). On the set-up: species or system mice (ICR-JCL). The settings on record: mouse, in vivo; for LD50 at 168 h: mice; for LD50: Test 2, route and unit inferred. The method, then:
In the measurement of LD50, eight ICR-JCL female mice (5 week age) were used as one group to breed in a transparent polycage, and each drug was dissolved in olive oil and administrated by routes of intraperitoneal injection (i.p.), oral administration (p.o.) and subcutaneous injection (s.c.), to the mice at one dose, and then, their value of LD50 by Litchfield-Wilcoxon graph method is obtained after 7 days. LD50 of Chlorambucil was i.p. 20 mg./kg., p.o. 80 mg./kg., and s.c. 26 mg./kg., LD50 of the sample No. 2 in Table 1 of the present invention was i.p. greater than 3000 mg./kg., p.o. greater than 6000 mg./kg. and s.c. greater than 3000 mg./kg.. […]

In series [2] the test system is human breast cancer cells having steroid hormone receptor. Nature of the series: Antitumor test (in vivo), implanted human breast cancer, drug in olive oil. The arrangement: species or system human (implanted in BALB/C-nu/nu mice).
A further series concerns estrogen receptor. Nature of the series: Test 3: binding function to estrogen sensitive cells (displacement of 3H-estradiol from uterus of rabbit). The method, then:
Binding function of 3-hydroxy-1,3,5(10)-estratriene-17β-[4-{p-[bis(2-chloroethyl)amino]phenyl}butyryloxy]acetate to estrogen sensitive cells.
Estradiol labelled by tritium (^3 H) was incubated with uterus of rabbit to bind it and then, the sample was added to the system to measure the amount of free ^3 H-estradiol which was replaced by the […].

In series [3] the test system is human breast cancer cells having steroid hormone receptor. As to the kind of experiment: Test 2: antitumor effect, dispersion in Polysolvate 80, intraperitoneal injection. The settings on record: Polysolvate 80 dispersion. The series is classed as in vivo, human (implanted in BALB/C-nu/nu mice).
Description: as §1
In accordance with the test I, except administrating each active ingredient in a form of dispersion dispersed in Polysolvate 80 (emulsifier) by an intraperitoneal injection in the test of antitumor effect.

The test system of series [4] is spleen, uterus and thymus. As to the kind of experiment: Observation in autopsy. The series is classed as in vivo, mice (BALB/C-nu/nu). The settings on record: autopsy after administration.
Description: as §1

Setting [5] is: po, oral administration, Table 1, read-out: LD50 (Oral administration).
The mark [6] stands for this setting: sc, subcutaneous administration, Table 1, read-out: LD50 (Subcutaneous administration).
The mark [7] stands for this setting: subcutaneous administration, 5 mg/kg.
The mark [8] stands for this setting: subcutaneous administration, 10 mg/kg.
Setting [9] is: ip, single dose in olive oil, i.p., 7 days, read-out: LD50.
[10] abbreviates: po, single dose in olive oil, p.o., 7 days, read-out: LD50.
Setting [11] is: sc, single dose in olive oil, s.c., 7 days, read-out: LD50.

Like-named read-outs stand apart in the source and are kept apart here.

On to `CC(=O)Oc1ccc2c(c1)CC[C@@H]1[C@@H]2CC[C@]2(C)[C@@H](OC(=O)COC(=O)CCCc3ccc(N(CCCl)CCCl)cc3)CC[C@@H]12` [Sample No. 3, 3-acetoxy-1,3,5(10)-estratriene-17β-[4-{p-[bis(2-chloroethyl)amino]phenyl}butyryloxy]acetate], for which the Efficiency of inhibition is recorded as 91% in series [1] (10 mg/kg), 93% in series [1] (15 mg/kg), 93% in series [2] (setting [7]) and 95% in series [2] (setting [8]). Moreover, the Survived ratio in series [1] (10 mg/kg), in series [1] (15 mg/kg), in series [2] (setting [7]) and in series [2] (setting [8]) was 10/10 in each case. In addition, the figures for the LD50 at 168 h in the series “Acute toxicity (LD50)” (setting [5]) and in the series “Acute toxicity (LD50)” (setting [6]) were more than 3000 mg/kg and more than 2000 mg/kg, respectively.

In “Acute toxicity (LD50)” (ip), `C[C@]12CC[C@@H]3c4ccc(O)cc4CC[C@H]3[C@@H]1CC[C@@H]2OC(=O)COC(=O)CCCc1ccc(N(CCCl)CCCl)cc1` [3-hydroxy-1,3,5(10)-estratriene-17β-[4-{p-[bis(2-chloroethyl)amino]phenyl}butyryloxy]acetate] showed an LD50 of more than 1000 mg/kg. In addition, the “binding function to estrogen receptor” value with estrogen receptor is on record as “has the binding function to estrogen receptor”. The “free 3H-estradiol (displacement)” value with estrogen receptor (compared with estradiol) is on record as “free ^3 H-estradiol was increased as the same with estradiol itself”. The “Inhibitory effect (%)” value came out at 91% in series [3] (0.5 mg./kg.) and 97% in series [3] (5 mg./kg.).

For the compound `CCC(=O)Oc1ccc2c(c1)CC[C@@H]1[C@@H]2CC[C@]2(C)[C@@H](OC(=O)COC(=O)CCCc3ccc(N(CCCl)CCCl)cc3)CC[C@@H]12` [Sample No. 4, 3-propionyloxy-1,3,5(10)-estratriene-17β-[4-{p-[bis(2-chloroethyl)amino]phenyl}butyryloxy]acetate], the Efficiency of inhibition in series [1] (10 mg/kg) turned out to be 93%; in series [1] (15 mg/kg), 97%; in series [2] (setting [7]), 92%; in series [2] (setting [8]), 94%. The Survived ratio in series [1] (10 mg/kg), in series [1] (15 mg/kg), in series [2] (setting [7]) and in series [2] (setting [8]) was 10/10 each time. For the same compound, the LD50 at 168 h in “Acute toxicity (LD50)” (setting [5]) is more than 3000 mg/kg; in “Acute toxicity (LD50)” (setting [6]), more than 2000 mg/kg.

For `C[C@]12CC[C@@H]3c4ccc(OC(=O)c5ccccc5)cc4CC[C@H]3[C@@H]1CC[C@@H]2OC(=O)COC(=O)CCCc1ccc(N(CCCl)CCCl)cc1` [Sample No. 2, 3-benzoyloxy-1,3,5(10)-estratriene-17β-[4-{p-[bis(2-chloroethyl)amino]phenyl}butyryloxy]acetate], the Efficiency of inhibition in series [1] (10 mg/kg) is on record as 92%; in series [1] (15 mg/kg), 98%; in series [2] (setting [7]), 90%; in series [2] (setting [8]), 98%. Further, the Survived ratio in series [1] (10 mg/kg), in series [1] (15 mg/kg), in series [2] (setting [7]) and in series [2] (setting [8]) was 10/10 each time. The LD50 at 168 h in “Acute toxicity (LD50)” (setting [9]) was more than 3000 mg/kg; in the series “Acute toxicity (LD50)” (setting [5]), more than 6000 mg/kg; in “Acute toxicity (LD50)” (setting [10]), more than 6000 mg/kg; in the series “Acute toxicity (LD50)” (setting [11]), more than 3000 mg/kg; in “Acute toxicity (LD50)” (setting [6]), more than 2000 mg/kg.

Turning to `O=C(O)CCCc1ccc(N(CCCl)CCCl)cc1` [Sample No. 1, 4-{p-[bis(2-chloroethyl)amino]phenyl}butyric acid, reference compound], the Efficiency of inhibition in series [1] (10 mg/kg) is 55%; in series [1] (15 mg/kg), 70%; in series [2] (setting [7]), 53%; in series [2] (setting [8]) it was 71%; in series [2] (subcutaneous and oral administration, 15 mg./kg. (text, about)) it was 50 to 70%. In addition, the Survived ratio in series [1] (10 mg/kg) was 8/10; in series [1] (15 mg/kg), 7/10; in series [2] (setting [7]) it was 9/10; in series [2] (setting [8]) it was 7/10. Further, the LD50 in “Acute toxicity (LD50)” (ip) was 20 mg/kg. Besides, the LD50 at 168 h turned out to be 20 mg/kg in the series “Acute toxicity (LD50)” (setting [9]); 80 mg/kg in “Acute toxicity (LD50)” (setting [5]); 80 mg/kg in the series “Acute toxicity (LD50)” (setting [10]); 26 mg/kg in the series “Acute toxicity (LD50)” (setting [11]); 26 mg/kg in “Acute toxicity (LD50)” (setting [6]). Besides, the “changes of spleen, uterus and thymus in autopsy” value in series [4] is “serious changes of spleen, uterus and thymus were found”. For the same compound, the “Inhibitory effect (%)” value in series [3] (5 mg./kg.) worked out at 30%.
